The values that follow come from patent US6300499A, “α1-adrenergic receptor antagonists” (Societe de Conseils de Recherches et d'Applications …, priority 1998, dated 2001).

One experiment has as its system prostatic urethrae. The experiment can be described thus: Urethra Contraction Test (inhibition of phenylephrine contraction of prostatic urethra). More on the design: species or system rabbit (male New Zealand). Particulars: inhibition of contraction of rabbit prostatic urethra, agonist phenylephrine, compound 30 min before. How it is done: The urethrae are removed from male New Zealand rabibits, and cleaned of the surrounding connective tissues. Bands of prostatic urethrae (3 mm wide, 10-15 mm long) are suspended (1 g tension) in organ baths containing 10 ml of physiological solution (pH 7.4) at 37° C. under an atmosphere of 95% O2 /5% CO2; NaCl (118 mM); KCl (4.7 mM); CaCl2 (2.5 mM); KH2 PO4 (1.2 mM); MgSO4 (1.2 mM); NaHCO3 (25 mM); glucose (11 mM). The contractile responses are measured using force displacement transducers coupled to a Gould 8000S polygraph. A one hour period of equilibration or equalization is provided before the experiment. After equalization, the preparations are sensitized by a submaximal concentration of phenylephrine. Forty five minutes after the sensitization, a concentration-effect curve for the phenylephrine is established. In order to determine the effect of the test compounds, different preparations originating from the same animal are used in parallel. One preparation serves as a control whilst the others receive a concentration of a test compound introduced into the bath 30 minutes before the phenylephrine (Auguet, M. et al. European J. Pharmacol. 217:153 (1995)).
The dissociation constants (Kb) of the test compounds are determined using the following equation: Kb =[B]/(dose ratio--1); in which [B] is the concentration of test compound and (dose ratio) is the EC50 of phenylephrine in the presence of the test compound divided by the EC50 of the control preparation. These resultats are then expressed as the negative logarithm of Kb. The values of the EC50 are calculated from the maximum contractile response to the phenylephrine by computer analysis using a linear regression over the average tension values. The maximum contractile response of each preparation which was subjected to the test compound is determined by comparing the response provoked by the application of the sensitizing concentration of phenylephrine with the response provoked in the control preparation (which has not received the test compounds).

In another experiment the target is α1-adrenergic receptor. Kind of experiment: Test of the bond to the α1-adrenergic receptor (inhibition of [3H]prazosin bond to rat cerebral cortex). To be noted: [3H]prazosin 0.2 nM, rat cerebral cortex membranes, 30 min, 25° C., pH 7.7. Type of experiment: binding, rat (male Sprague Dawley). How it is done: The cerebral cortices of male Sprague Dawley rats are homogenized at 4° C. in Tris-HCl 50 mM pH=7.7 and centrifuged at 50,000 g for 30 minutes at 4° C. The pellets are again suspended in the same buffer and centrifuged again at 50,000 g for 30 minutes at 4° C.
The filters are rinsed three times with the same buffer at 0-4° C. and their radioactivity is tested by liquid scintillation spectrometry.
The specific bonds are obtained by subtracting the non-specific bonds (determined in the presence of 10 μM of phentolamine (Sigma Chemical Co. St. Louis Mo.)) from the total bonds. The data relative to the bonds is analyzed by computer assisted iterative non-linear regression analysis, using the Ligand program (Munson, P. J., Rodbard, D. Anal. Biochem. 107:220 (1980)).

Molecules are shown by their SMILES.

As a reminder, the Ki is a dissociation constant, usually derived from enzyme kinetics or from competition with a known ligand. Low readings indicate tighter binding, high ones weaker binding. For `Cc1ccc(C)c(N2CCN(CCCNC(=O)C(C)(O)c3ccccc3)CC2)c1` (racemic) [Compound 22, (±)-N-[3-{4-(2,5-dimethylphenyl)-1-piperazinyl}-propyl]-α-hydroxy-α-methyl-benzeneacetamide], the “-log Kb” value in the experiment on prostatic urethrae was found to be 8.3. For the same compound, affinity at α1-adrenergic receptor was put at a Ki of 25 nM.
For `CCC(O)(C(=O)NCCCN1CCN(c2cc(C)ccc2C)CC1)c1ccccc1` (racemic) [Compound 27, (±)-N-[3-{4-(2,5-dimethylphenyl)-1-piperazinyl}-propyl]-2-hydroxy-2-phenyl-butyramide] the same measures were 7.6 and 31 nM.
For `Cc1ccc(C)c(N2CCN(CCCNC(=O)C(C)c3ccccc3)CC2)c1` (racemic) [Compound 38, (±)-N-[3-{4-(2,5-dimethylphenyl)-1-piperazinyl}-propyl]-α-methyl-benzeneacetamide] the same measures were 7.5 and 30 nM.
On the same counts, the results for `Cc1ccc(C)c(N2CCN(CCCNC(=O)C(CO)c3ccccc3)CC2)c1` (racemic) [Compound 39, (±)-N-[3-{4-(2,5-dimethylphenyl)-1-piperazinyl}-propyl]-α-hydroxymethyl-benzeneacetamide] are 7.3 and 27 nM.
With `Cc1ccc(C)c(N2CCN(CCCNC(=O)C(C)(O)c3cccc4ccccc34)CC2)c1` (racemic) [Compound 42, (±)-N-[3-{4-(2,5dimethylphenyl)-1-piperazinyl}-propyl]-α-hydroxy-α-methyl-1-naphthaleneacetamide], in the experiment with prostatic urethrae, the “-log Kb” value was 7.68. The Ki at α1-adrenergic receptor was determined as 22 nM.
As for `Cc1ccc(C)c(N2CCN(CCCNC(=O)C(C(=O)NCc3ccccc3)c3ccccc3)CC2)c1` (racemic) [Compound 47, (±)-N-[3-{4-(2,5-dimethylphenyl)-1-piperazinyl}-propyl]-α-benzylaminocarbonyl-benzeneacetamide], in the experiment on prostatic urethrae, the “-log Kb” value stood at 7.07. The same compound registered an inhibition constant Ki on α1-adrenergic receptor of 14 nM.
With `Cc1ccc(S(=O)(=O)NC(C(=O)NCCCN2CCN(c3cc(C)ccc3C)CC2)c2ccccc2)cc1` (racemic) [Compound 48, (±)-N-[3-{4-(2,5-dimethylphenyl)-1piperazinyl}-propyl]-α-(4-methylphenyl)-sulphonylamino-benzeneacetamide], the “-log Kb” value with prostatic urethrae came out at 7.02. This compound yielded an inhibition constant Ki at α1-adrenergic receptor of 29 nM.
On the same counts, the results for `Cc1ccc(C)c(N2CCN(CCCNC(=O)C(C)(C(=O)NCc3ccccc3)c3ccccc3)CC2)c1` (racemic) [Compound 50, (±)-N-[3-{4-(2,5-dimethylphenyl)-1-piperazinyl}-propyl]-α-benzylaminocarbonyl-α-methyl-benzeneacetamide] are 6.92 and 50 nM.
As for `Cc1ccccc1N1CCN(CCCNC(=O)C(O)(c2ccccc2)c2ccccc2)CC1` [Compound 2, α-hydroxy-N-[3-{4-(2-methylphenyl)-1-piperazinyl}-propyl]-α-phenyl-benzeneacetamide], the “-log Kb” value with prostatic urethrae is 8. Also, affinity on α1-adrenergic receptor was put at a Ki of 30 nM.
For `Cc1ccc(C)c(N2CCN(CCCNC(=O)C(O)(c3ccccc3)c3ccccc3)CC2)c1` [Compound 7, N-[3-{4-(2. 5-dimethylphenyl)-1-piperazinyl}-propyl]-α-hydroxy-α-phenyl-benzeneacetamide] the same measures were 8.1 and 30 nM.
For `CCOc1ccccc1N1CCN(CCCNC(=O)C(O)(c2ccccc2)c2ccccc2)CC1` [Compound 8, N-[3-{4-(2-ethoxyphenyl)-1-piperazinyl}-propyl]-α-hydroxy-α-phenyl-benzeneacetamide] the same measures were 8.2 and 16 nM.
On the same counts, the results for `O=C(NCCCN1CCN(c2ccccc2Cl)CC1)C(O)(c1ccccc1)c1ccccc1` [Compound 9, N-[3-{4-(2-chlorophenyl)-1-piperazinyl}-propyl]-α-hydroxy-α-phenyl-benzeneacetamide] are 8.1 and 28 nM.
For the compound `N#Cc1ccccc1N1CCN(CCCNC(=O)C(O)(c2ccccc2)c2ccccc2)CC1` [Compound 10, N-[3-{4-(2-cyanophenyl)-1-piperazinyl}-propyl]-α-hydroxy-α-phenyl-benzeneacetamide], in the experiment with prostatic urethrae, the “-log Kb” value came to 8.2. Besides, on α1-adrenergic receptor, the inhibition constant (Ki) is 27 nM.
As for `COC(C(=O)NCCCN1CCN(c2cc(C)ccc2C)CC1)(c1ccccc1)c1ccccc1` [Compound 11, N-[3-{4-(2,5-dimethylphenyl)-1-piperazinyl}-propyl]-α-methoxy-α-phenyl-benzeneacetamide], the “-log Kb” value in the experiment with prostatic urethrae was found to be 6.9. In addition, at α1-adrenergic receptor, affinity was put at a Ki of 38 nM.
On the same counts, the results for `COc1ccccc1N1CCN(CCCNC(=O)C(c2ccccc2)c2ccccc2)CC1` [Compound 13, N-[3-{4-(2-methoxyphenyl)-1-piperazinyl}-propyl]-α-phenyl-benzeneacetamide] are 8.2 and 30 nM.
On the same counts, the results for `COc1ccccc1N1CCN(CCCNC(=O)C(O)(c2ccccc2)c2ccccc2)CC1` [Compound 14, α-hydroxy-N-[3-{4-(2-methoxyphenyl)-1-piperazinyl}-propyl]-α-phenyl-benzeneacetamide] are 7.8 and 27 nM.
On the same counts, the results for `COc1ccccc1N1CCN(CCCNC(=O)C2c3ccccc3Oc3ccccc32)CC1` [Compound 15, N-[3-{4-(2-methoxyphenyl)-1-piperazinyl}-propyl]-9H-xanthene-9-carboxamide] are 7.9 and 27 nM.
For the compound `COc1ccccc1N1CCN(CCCNC(=O)C2(O)c3ccccc3-c3ccccc32)CC1` [Compound 16, 9-hydroxy-N-[3-{4-(2-methoxyphenyl)-1-piperazinyl}-propyl]-9H-fluorene-9-carboxamide], the “-log Kb” value in the experiment with prostatic urethrae is recorded as 7.8. In addition, the affinity at α1-adrenergic receptor corresponds to a Ki of 41 nM.
On to `COc1ccccc1N1CCN(CCCNC(=O)C(O)(c2ccccc2Cl)c2ccccc2Cl)CC1` [Compound 17, 2-chloro-α-(2-chlorophenyl)-α-hydroxy-N-[3-{4-(2-methoxyphenyl)-1-piperazinyl}-propyl]-α-phenyl-benzeneacetamide], for which the “-log Kb” value in the experiment on prostatic urethrae turned out to be 7.7. For the same compound, on α1-adrenergic receptor, the Ki is 54 nM.
On the same counts, the results for `Cc1ccc(C)c(N2CCN(CCCNC(=O)C(c3ccccc3)c3ccccc3)CC2)c1` [Compound 20, N-[3-{4-(2,5-dimethylphenyl)-1-piperazinyl}-propyl]-α-phenyl-benzeneacetamide] are 7.5 and 27 nM.
At α1-adrenergic receptor, `Cc1ccc(C)c(N2CCN(CCCNC(=O)C(c3ccc(Cl)cc3)c3ccc(Cl)cc3)CC2)c1` [Compound 21, 4-chloro-a-(4-chlorophenyl)-N-[3-{4-(2,5-dimethylphenyl)-1-piperazinyl}-propyl]-benzeneacetamide] gave a Ki of 64 nM.
The same measure, in the same setting: to `Cc1ccc(C)c(N2CCN(CCCNC(=O)C(C)(c3ccccc3)c3ccccc3)CC2)c1` [Compound 23, N-[3-{4-(2,5-dimethylphenyl)-1-piperazinyl}-propyl]-α-methyl-α-phenyl-benzeneacetamide] belongs 98 nM; to `CCSC(C(=O)NCCCN1CCN(c2cc(C)ccc2C)CC1)(c1ccccc1)c1ccccc1` [Compound 24, N-[3-{4-(2,5dimethylphenyl)-1-piperazinyl}-propyl]-α-ethylthio-α-phenyl-benzeneacetamide], 69 nM.
Turning to `COc1ccc(C(O)(C(=O)NCCCN2CCN(c3cc(C)ccc3C)CC2)c2ccc(OC)cc2)cc1` [Compound 25, N-[3-{4-(2,5-dimethylphenyl)-1-piperazinyl}-propyl]-α-hydroxy-4-methoxy-α-(4-methoxyphenyl)-benzeneacetamide], the “-log Kb” value with prostatic urethrae worked out at 7.6. Besides, the inhibition constant (Ki) on α1-adrenergic receptor stood at 29 nM.
On to `CCC(CC)(C(=O)NCCCN1CCN(c2cc(C)ccc2C)CC1)c1ccccc1` [Compound 26, N-[3-{4-(2,5dimethylphenyl)-1-piperazinyl}-propyl]-2-ethyl-2-phenyl-butyramide], for which affinity at α1-adrenergic receptor was put at a Ki of 74 nM.
Still for that read-out and setting: to `Cc1ccc(C)c(N2CCN(CCCN(C)C(=O)C(c3ccccc3)c3ccccc3)CC2)c1` [Compound 35, N-[3-{4-(2,5-dimethylphenyl)-1piperazinyl}-propyl]-N-methyl-α-phenyl-benzeneacetamide] belongs 90 nM.
